A word on the IC50: it is the point on the concentration scale where inhibition reaches its midpoint.

Calls of active or inactive are those of the source. The rule behind the calls is not given here.

The record followed here is ChEMBL document CHEMBL5150031, “Targeting osteoarthritis-associated galectins and an induced effector class by a ditopic bifunctional reagent: Impact of its glycan part on binding measured in the tissue context” (Bioorg Med Chem, 2022).

Experiment [1] addresses Galectin-1 (Homo sapiens) (UniProt P09382). Put plainly: Inhibition of Alexa-Fluor-488 conjugated galectin-1 binding to human osteoarthritic cartilage at 4 mM of sugar preincubated for 1 hr followed by incubation with tissue material for overnight by 2-colour fluorescence microsocopy. It counts as tissue-based.
Experiment [2] has as its target Galectin-3 (Homo sapiens) (UniProt P17931). Put plainly: Inhibition of Alexa-Fluor-647 conjugated galectin-3 binding to human osteoarthritic cartilage at 4 mM of sugar preincubated for 1 hr followed by incubation with tissue material for overnight by 2-colour fluorescence microsocopy. It counts as tissue-based.
The species entered for experiment [3] is Homo sapiens. Put plainly: Inhibition of Alexa-Fluor-488 conjugated galectin-1/Alexa-Fluor-647 conjugated galectin-3 binding to human osteoarthritic cartilage at 4 mM of sugar preincubated for 1 hr followed by incubation with tissue material for overnight by 2-colour fluorescence microsocopy. The class given is tissue-based.
Experiment [4] in a line: Inhibition of biotinylated Galectin-1/3 (unknown origin) preincubated for 30 mins at room temperature followed by incubation at 37 degC for 1 hr by surface-immobilized glycoprotein asialofetuin based solid phase assay. More on the design: species or system Homo sapiens.
The species entered for experiment [5] is Homo sapiens. Put plainly: Inhibition of biotinylated Galectin-1/3 (unknown origin) preincubated for 30 mins at room temperature followed by incubation at 37 degC for 1 hr by surface-immobilized glycoprotein asialofetuin based solid phase assay relative to lactose. Conditions: time 90.0 min.
The target in experiment [6] is Galectin-3 (Mus musculus) (UniProt P16110). Put plainly: Inhibition of biotinylated galectin-3 binding to C57BL/6 mouse kidney cortex at 125 to 500 uM of lactose residue per molecule preincubated for 1 hr followed by incubation with tissue material for overnight by light microsocopy. The class given is tissue-based. To be noted: dose 125-500 µM.
The target is the same in experiment [7]. Put plainly: Inhibition of biotinylated galectin-3 binding to C57BL/6 mouse kidney medulla at 125 to 500 uM of lactose residue per molecule preincubated for 1 hr followed by incubation with tissue material for overnight by light microsocopy. To be noted: Renal medulla, dose 125-500 µM. It counts as tissue-based.
For experiment [8], the target named is Galectin-1 (Mus musculus) (UniProt P16045). In words: Inhibition of biotinylated galectin-1 binding to C57BL/6 mouse kidney at 125 to 500 uM of lactose residue per molecule preincubated for 1 hr followed by incubation with tissue material for overnight by light microsocopy. It counts as tissue-based. To be noted: dose 125-500 µM.
Experiment [9] concerns the target T1, Collagenase 3 (Homo sapiens, UniProt P45452). In words: Inhibition of MMP13 (unknown origin) assessed as reduction in cleavage of colorimetric substrate incubated for 1 hr by colorimetric analysis.
Experiment [10] addresses T1, Collagenase 3. In words: Inhibition of MMP13 (unknown origin) assessed as reduction in cleavage of colorimetric substrate by measuring remaining activity at 10 nM incubated for 1 hr by colorimetric analysis relative to control.
The target of experiment [11] is T1, Collagenase 3. In words: Inhibition of MMP13 (unknown origin) assessed as reduction in cleavage of colorimetric substrate by measuring remaining activity at 100 nM incubated for 1 hr by colorimetric analysis relative to control.
Experiment [12] deals with T1, Collagenase 3. Put plainly: Inhibition of MMP13 (unknown origin) assessed as reduction in cleavage of colorimetric substrate by measuring remaining activity at 1000 nM incubated for 1 hr by colorimetric analysis relative to control.
In experiment [13] the target is Galectin-1 (Mus musculus) (UniProt P16045). In words: Inhibition of Alexa-Fluor-488 conjugated galectin-1 binding to C57BL/6 mouse kidney cortex at 2 mM of sugar preincubated for 1 hr followed by incubation with tissue material for overnight by 2-colour fluorescence microsocopy. It counts as tissue-based.
The target is the same in experiment [14]. In words: Inhibition of Alexa-Fluor-488 conjugated galectin-1 binding to C57BL/6 mouse kidney medulla at 2 mM of sugar preincubated for 1 hr followed by incubation with tissue material for overnight by 2-colour fluorescence microsocopy. It counts as tissue-based. To be noted: Renal medulla.
Experiment [15] concerns the target Galectin-3 (Mus musculus) (UniProt P16110). Put plainly: Inhibition of Alexa-Fluor-647 conjugated galectin-3 binding to C57BL/6 mouse kidney cortex at 2 mM of sugar preincubated for 1 hr followed by incubation with tissue material for overnight by 2-colour fluorescence microsocopy. The class given is tissue-based.
For experiment [16] the target is unchanged. In words: Inhibition of Alexa-Fluor-647 conjugated galectin-3 binding to C57BL/6 mouse medulla at 2 mM of sugar preincubated for 1 hr followed by incubation with tissue material for overnight by 2-colour fluorescence microsocopy. It counts as tissue-based. Conditions: Renal medulla.
Experiment [17] is filed under the species Mus musculus. In words: Inhibition of Alexa-Fluor-488 conjugated galectin-1/Alexa-Fluor-647 conjugated galectin-3 binding to C57BL/6 mouse kidney cortex at 2 mM of sugar preincubated for 1 hr followed by incubation with tissue material for overnight by 2-colour fluorescence microsocopy. The class given is tissue-based.
Experiment [18] is filed under the species Mus musculus. Put plainly: Inhibition of Alexa-Fluor-488 conjugated galectin-1/Alexa-Fluor-647 conjugated galectin-3 binding to C57BL/6 mouse medulla at 2 mM of sugar preincubated for 1 hr followed by incubation with tissue material for overnight by 2-colour fluorescence microsocopy. It counts as tissue-based. To be noted: Renal medulla.

Chain of Galectin-3 (Mus musculus) (P16110 whole entry): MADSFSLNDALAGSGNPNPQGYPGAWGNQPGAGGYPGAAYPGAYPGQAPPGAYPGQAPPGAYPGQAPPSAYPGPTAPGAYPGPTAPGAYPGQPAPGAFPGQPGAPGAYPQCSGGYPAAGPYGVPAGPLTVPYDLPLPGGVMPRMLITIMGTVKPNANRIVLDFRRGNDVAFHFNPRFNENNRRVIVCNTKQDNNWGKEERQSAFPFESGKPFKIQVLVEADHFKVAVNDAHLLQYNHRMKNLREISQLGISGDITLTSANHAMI
Chain of Galectin-1 (Mus musculus) (P16045 whole entry): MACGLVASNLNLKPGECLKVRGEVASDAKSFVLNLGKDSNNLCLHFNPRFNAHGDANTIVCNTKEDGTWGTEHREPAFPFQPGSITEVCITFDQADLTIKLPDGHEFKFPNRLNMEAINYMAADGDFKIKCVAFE
Chain of Galectin-1 (Homo sapiens) (P09382 whole entry): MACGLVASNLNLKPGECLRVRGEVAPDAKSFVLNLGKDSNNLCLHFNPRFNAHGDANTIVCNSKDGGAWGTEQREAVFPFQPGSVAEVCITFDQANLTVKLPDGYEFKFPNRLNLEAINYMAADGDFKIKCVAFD
Chain of Galectin-3 (Homo sapiens) (P17931 whole entry): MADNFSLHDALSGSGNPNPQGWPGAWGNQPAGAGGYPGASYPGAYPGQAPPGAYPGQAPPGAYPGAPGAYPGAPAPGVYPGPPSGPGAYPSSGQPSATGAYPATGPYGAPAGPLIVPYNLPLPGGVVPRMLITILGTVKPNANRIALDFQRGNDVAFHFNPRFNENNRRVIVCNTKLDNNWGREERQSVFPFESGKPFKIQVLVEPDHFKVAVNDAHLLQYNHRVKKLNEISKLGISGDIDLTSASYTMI

With “LACTOSE, ANHYDROUS [listing 1 of 2 here]”, the inhibition result in [1], in [2] and in experiment [3] was “Active” each time.
As to `OC[C@H]1O[C@@H](O[C@H]2[C@H](O)[C@@H](O)[C@H](n3cc(COC[C@@H](OCc4cn([C@@H]5O[C@H](CO)[C@@H](O[C@@H]6O[C@H](CO)[C@H](O)[C@H](O)[C@H]6O)[C@H](O)[C@H]5O)nn4)[C@@H](OCc4cn([C@@H]5O[C@H](CO)[C@@H](O[C@@H]6O[C@H](CO)[C@H](O)[C@H](O)[C@H]6O)[C@H](O)[C@H]5O)nn4)[C@H](OCc4cn([C@@H]5O[C@H](CO)[C@@H](O[C@@H]6O[C@H](CO)[C@H](O)[C@H](O)[C@H]6O)[C@H](O)[C@H]5O)nn4)[C@@H](COCc4ccccc4)OCc4ccccc4)nn3)O[C@@H]2CO)[C@H](O)[C@@H](O)[C@H]1O`, in experiment [4], the 50% inhibitory concentration (IC50) stood at 220 µM. The Ratio in experiment [5] is 4.9. Besides, the inhibition result in experiment [6], in [7] and in experiment [8] was “Active” in each case.
Compound `OC[C@H]1O[C@@H](O[C@H]2[C@H](O)[C@@H](O)[C@H](n3cc(COC[C@@H](OCc4cn([C@@H]5O[C@H](CO)[C@@H](O[C@@H]6O[C@H](CO)[C@H](O)[C@H](O)[C@H]6O)[C@H](O)[C@H]5O)nn4)[C@@H](O)[C@H](O)[C@@H](COCc4cn([C@@H]5O[C@H](CO)[C@@H](O[C@@H]6O[C@H](CO)[C@H](O)[C@H](O)[C@H]6O)[C@H](O)[C@H]5O)nn4)OCc4cn([C@@H]5O[C@H](CO)[C@@H](O[C@@H]6O[C@H](CO)[C@H](O)[C@H](O)[C@H]6O)[C@H](O)[C@H]5O)nn4)nn3)O[C@@H]2CO)[C@H](O)[C@@H](O)[C@H]1O` registered an IC50 in experiment [4] of 420 µM. Besides, the Ratio in experiment [5] was determined as 2.5. Also, the inhibition entry in experiment [6], in experiment [7] and in [8] was “Active” each time.
For the compound `COc1ccc(S(=O)(=O)N(CC(=O)NO)CC(C)C)cc1`, the half-maximal inhibitory concentration (IC50) in experiment [9] amounted to 5.2 nM.
Compound “LACTOSE, ANHYDROUS [listing 2 of 2 here]” displayed a half-inhibitory concentration (IC50) in experiment [4] of 1070 µM.
Consider `COc1ccc(S(=O)(=O)N(CCCCCCNC(=O)CCCCC(=O)NCCN(CCC(=O)NCCNC(=O)CCCCC(=O)NCCO[C@@H]2O[C@H](CO)[C@@H](O[C@@H]3O[C@H](CO)[C@H](O)[C@H](O)[C@H]3O)[C@H](O)[C@H]2O)CCC(=O)NCCNC(=O)CCCCC(=O)NCCO[C@@H]2O[C@H](CO)[C@@H](O[C@@H]3O[C@H](CO)[C@H](O)[C@H](O)[C@H]3O)[C@H](O)[C@H]2O)CC(=O)NO)cc1`, for which the IC50 in experiment [4] stood at 200 µM; in experiment [9] it was 1.3 nM. Also, the Ratio in experiment [5] was 5.4. In addition, the Activity was 15.2% in experiment [10], 3.2% in experiment [11] and 2.7% in experiment [12]. The inhibition entry in experiment [6], in experiment [7], in experiment [8], in [13], in experiment [14] and in experiment [15] was “Active” throughout. In addition, the inhibition result in [16], in [17], in [18], in experiment [1], in [2] and in experiment [3] was “Active” each time.
